Laboratory results published in patent US20050176619A1, “Antitumoral formulations of thioxanthenone” (priority 2001, published 2005).
In brackets after ≈: the same amount, converted by molar mass.

Legend:
[1] = Stability under acidic conditions; format: physicochemical
Source text: (§1) It is desirable in the treatment of tumors and cancers to provide the active pharmaceutical ingredient as a ready-to-use (RTU) solution formulation which is pharmaceutically stable over prolonged periods of storage. […] Accordingly, it is an object of the present invention to overcome these difficulties by providing a stable solution formulation of N-[[1-[[2-(diethylamino)ethyl]amino]-7-methoxy-9-oxothioxanthen-4-yl]methyl]formamide, or a pharmaceutically acceptable acid-addition salt thereof, in ready-to-use form.

Solubility in water = format: physicochemical
Source text: as §1

## CCN(CC)CCNc1ccc(CNC=O)c2sc3ccc(OC)cc3c(=O)c12 [N-[[1-[[2-(diethylamino)ethyl]amino]-7-methoxy-9-oxothioxanthen-4-yl]methyl]formamide]
[1]
  stability under acidic conditions: unstable under acidic conditions
Solubility in water
  solubility: 100 µg/mL (≈ 242 µM)
